Measured values reported in patent publication US12448398B2, “Semi-synthetic analogues of epipolythiodioxopiperazine alkaloids” (Ohio State Innovation Foundation, priority 2019, dated 2025).

Assays:
MLL1 = MLL1 (Homo sapiens, UniProt Q03164); settings: in pancreatic cancer; cited from earlier work
[1] = tested on: PANC02-H7 or UN-KC-6141 cells; settings: combination of 3 and anti PD-L1; cited from earlier work
[2] = tested on: metastatic colon carcinoma; settings: combined treatment of 3 and 5-fluorouracil; cited from earlier work
[3] = tested on: panel of cancer cell lines; settings: cited from earlier work
[4] = tested on: MDA-MB-435, MDA-MB-231 and OVCAR3 cells; test: Cytotoxicity assay against a panel of three cancer cell lines (CellTiter 96 AQueous, 72 h); assay type: cell-based, human; settings: panel MDA-MB-435, MDA-MB-231, OVCAR3; relative to parent natural product
Experimental: (§1) Human melanoma cancer cells (MDA-MB-435), human breast cancer cells (MDA-MB-231) and human ovarian cancer cells (OVCAR3) were obtained from the American Type Culture Collection (Manassas, VA). The cell lines were cultured in RPMI 1640 medium containing fetal 10% bovine serum, 100 unites/mL penicillin and 100 μg/mL streptomycin. The cells were grown at 37° C. under 5% CO2, and then harvested during the log-phase growth by trypsinization followed by two washing to remove all traces of enzymes. Cells were seeded in 96-well clear, flat-bottom plate (Microtest 96, Falcon) at a density of 5000 cells per well. Each plate was incubated overnight at 37° C. under 5% CO2. Samples dissolved in DMSO were diluted and added to the appropriate wells to give final concentrations of 20, 4, 0.8, 0.16, and 0.032 μM for pure compounds, and a total volume of 100 μL and 0.5% DMSO per well. The cells with the test samples were then incubated for 72 h at 37° C. Cell viability was examined using a commercial absorbance assay (CellTiter 96® AQueous One Solution Cell Proliferation Assay, Promega Corp, Madison, WI). IC50 values were determined as the concentration required to diminish cellular growth by 50% compared to the untreated controls after 72 h of continuous exposure. Taxol (Paclitaxel) was used as a positive control.
Human melanoma cancer cells (MDA-MB-435), human breast cancer cells (MDA-MB-231) and human ovarian cancer cells (OVCAR3) were produced from the American Type Culture Collection (Manassas, VA). RPMI 1640 medium (fetal 10% bovine serum, 100 unites/mL penicillin and 100 μg/mL streptomycin) was used to culture cell lines. The cells were grown at 37° C. under 5% CO2, then harvested during the log-phase growth by trypsinization followed by two washing to remove all traces of enzymes. 96-well clear, flat-bottom plate (Microtest 96, Falcon) was used to seed the cells at a density of 5000 cells per well. […] Cell viability was examined using a commercial absorbance assay (CellTiter 96® AQueous One Solution Cell Proliferation Assay, Promega Corp, Madison, WI). […]

MDA-MB-231 cells = test: Cytotoxicity assay, human breast cancer cells; assay type: cell-based; settings: vs verticillin H
Experimental: as §1, with “The cells with the test samples were then incubated for 72 h at 37° C.” left out, “IC50 values were determined as the concentration required to diminish cellular growth by 50% compared to the untreated controls after 72 h of continuous exposure. Taxol (Paclitaxel) was used as a positive control.” left out
(§2) Human melanoma cancer cells (MDA-MB-435), human breast cancer cells (MDA-MB-231) and human ovarian cancer cells (OVCAR3) were produced from the American Type Culture Collection (Manassas, VA). […] Cell viability was examined using a commercial absorbance assay (CellTiter 96® AQueous One Solution Cell Proliferation Assay, Promega Corp, Madison, WI). […]

OVCAR3 cells = test: Cytotoxicity assay, human ovarian cancer cells; assay type: cell-based; settings: vs verticillin H
Experimental: as §1, with “The cells with the test samples were then incubated for 72 h at 37° C.” left out, “IC50 values were determined as the concentration required to diminish cellular growth by 50% compared to the untreated controls after 72 h of continuous exposure. Taxol (Paclitaxel) was used as a positive control.” left out
as §2

Chain of MLL1 (Q15291 whole entry): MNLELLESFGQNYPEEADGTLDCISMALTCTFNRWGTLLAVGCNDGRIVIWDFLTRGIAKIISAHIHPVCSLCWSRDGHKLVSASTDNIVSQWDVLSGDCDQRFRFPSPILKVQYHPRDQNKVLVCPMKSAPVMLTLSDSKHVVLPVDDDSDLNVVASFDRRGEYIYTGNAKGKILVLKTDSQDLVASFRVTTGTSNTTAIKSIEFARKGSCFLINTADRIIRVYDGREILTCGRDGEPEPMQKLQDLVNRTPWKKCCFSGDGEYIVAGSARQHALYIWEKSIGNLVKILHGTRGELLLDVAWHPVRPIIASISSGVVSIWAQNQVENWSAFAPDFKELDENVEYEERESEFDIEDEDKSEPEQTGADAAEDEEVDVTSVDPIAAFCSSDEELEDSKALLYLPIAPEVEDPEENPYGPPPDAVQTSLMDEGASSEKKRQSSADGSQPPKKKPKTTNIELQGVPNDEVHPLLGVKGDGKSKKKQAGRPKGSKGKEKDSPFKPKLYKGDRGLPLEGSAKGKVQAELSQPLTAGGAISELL
Chain of MLL1 (Q9UBL3 96-628, further chain): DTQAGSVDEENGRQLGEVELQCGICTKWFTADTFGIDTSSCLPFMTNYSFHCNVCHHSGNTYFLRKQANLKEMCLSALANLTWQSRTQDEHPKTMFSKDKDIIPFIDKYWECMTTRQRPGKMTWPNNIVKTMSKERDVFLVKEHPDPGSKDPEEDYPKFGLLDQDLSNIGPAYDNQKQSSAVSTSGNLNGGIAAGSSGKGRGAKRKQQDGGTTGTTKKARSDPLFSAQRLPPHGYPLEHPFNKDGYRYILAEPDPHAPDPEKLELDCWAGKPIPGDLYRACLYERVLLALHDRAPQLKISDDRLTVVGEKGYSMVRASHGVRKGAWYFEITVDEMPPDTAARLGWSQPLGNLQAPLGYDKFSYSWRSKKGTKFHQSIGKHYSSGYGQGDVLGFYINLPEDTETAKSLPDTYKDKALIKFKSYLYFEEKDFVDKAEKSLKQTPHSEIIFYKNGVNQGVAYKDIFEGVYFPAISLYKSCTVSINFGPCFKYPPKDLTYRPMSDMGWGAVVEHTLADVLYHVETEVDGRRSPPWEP
Chain of MLL1 (Q03164 3745-3969): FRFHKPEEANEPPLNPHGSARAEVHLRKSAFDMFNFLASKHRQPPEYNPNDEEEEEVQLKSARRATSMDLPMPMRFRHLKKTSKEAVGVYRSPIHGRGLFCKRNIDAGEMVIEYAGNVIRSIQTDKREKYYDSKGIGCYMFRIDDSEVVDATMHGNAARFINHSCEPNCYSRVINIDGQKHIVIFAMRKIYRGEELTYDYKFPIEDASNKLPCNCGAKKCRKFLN

CN1C(=O)C23SSC1(C)C(=O)N2C1Nc2ccccc2C1(C12c4ccccc4NC1N1C(=O)C4(C)SSC1(C(=O)N4C)C2O)C3O (centres unmarked) [Compound 3, verticillin A]
IC50 (MLL1): 800 nM | Tumor size [1]: significantly smaller tumor size | Tumor size compared to control [2]: significantly smaller tumors | Cytotoxicity level, in words [3]: nanomolar cytotoxicity

CCCC(=O)O[C@H]1[C@]2([C@@]34c5ccccc5N[C@@H]3N3C(=O)[C@]5(CC)SS[C@]3(C(=O)N5C)[C@H]4O)c3ccccc3N[C@@H]2N2C(=O)[C@]3(CC)SS[C@]12C(=O)N3C [Compound 12]
Potency compared with the parent compound, in words [4]: more potent

CC[C@@]12SS[C@]3(C(=O)N1C)[C@@H](O)[C@]1([C@@]45c6ccccc6N[C@@H]4N4C(=O)[C@]6(CC)SS[C@]4(C(=O)N6C)[C@H]5OC(=O)C(C)(C)C)c4ccccc4N[C@@H]1N3C2=O [Compound 14]
Potency compared with the parent compound, in words [4]: more potent

CCOC(=O)O[C@H]1[C@]2([C@@]34c5ccccc5N[C@@H]3N3C(=O)[C@]5(CC)SS[C@]3(C(=O)N5C)[C@H]4O)c3ccccc3N[C@@H]2N2C(=O)[C@]3(CC)SS[C@]12C(=O)N3C [Compound 16]
Potency compared with the parent compound, in words [4]: more potent | Fold increase of potency relative to parent compound (MDA-MB-231 cells): 4.4 fold

CC[C@@]12SS[C@]3(C(=O)N1C)[C@@H](O)[C@]1([C@@]45c6ccccc6N[C@@H]4N4C(=O)[C@]6(CC)SS[C@]4(C(=O)N6C)[C@H]5OS(=O)(=O)c4ccc(F)cc4)c4ccccc4N[C@@H]1N3C2=O [Compound 17]
Fold loss of potency relative to parent compound (MDA-MB-231 cells): 1.6 fold | Fold increase of potency relative to parent compound (OVCAR3 cells): 2.9 fold

CC[C@@]12SS[C@]3(C(=O)N1C)[C@@H](O)[C@]1([C@@]45c6ccccc6N[C@@H]4N4C(=O)[C@]6(CC)SS[C@]4(C(=O)N6C)[C@H]5OC(=O)N(C)C)c4ccccc4N[C@@H]1N3C2=O [Compound 19]
Fold increase of potency relative to parent compound (OVCAR3 cells): 12.0 fold
